Measurements published in US7423068B2, “Control of parasitic mites of honey bees” (The United States of America as represented by the …, priority 2001, dated 2008).
Where two headings read alike, the source gives them in different places.

Key:
free-running adult mites = tested on: free-running adult mites
Procedure: 2-Heptanone was tested for miticidal activity in two separate sets of bioassays. In the petri dish bioassays we exposed free-running adult mites to volatiles from 2-heptanone either in pure form or in an acrylic block dispenser (as described in a further experiment, below) and measured mortality over time. Mites were placed in petri dishes (5-10 mites/dish, 4 dishes per treatment and 4 dishes for controls) that were lined on the bottom with damp tissue paper covered with Parafilm®. Holes were punched in the Parafilm® using an insect pin to create a humid environment in the petri dish. A piece of filter paper the same size as the petri dish was placed on top of the Parafilm® sheet. In the first petri dish bioassay, 40 μl of pure 2-heptanone was placed on a piece of filter paper on the lid of the petri dish (treatment dishes). The Control dishes were set up as described above but nothing was added to the piece of filter paper fastened to the lid of the petri dish. The petri dishes were placed in separate incubators for treatments and Controls. Incubator temperatures were maintained at 33-34.4° C. […] In the second bioassay 0.1 g of a 30% concentration of 2-heptanone in acrylic block made as in Example 6 was placed in a plastic weighing boat in the center of petri dishes prepared as described above. Control petri dishes were prepared identically to those containing the acrylic block, but the weighing boat in the center of the dish was empty.
In another series of tests, 2-heptanone, 98+% (Sigrma-Aldrich); 3-heptanone (Fluka Chemika); 4-heptanone (Fluka Chemika); 2-hexanone; 2-octanone, 98% (Aldrich Chemical Co.); 1-heptanol (Fluka Chemika, 99.5% GC), and heptaldehyde, 95% (Aldrich Chemical Co.) were tested in petri dish bioassays wherein free-running adult mites were exposed to 40 μl of pure compound placed on filter paper as described above. The test conditions and Controls were as described above.
The test conditions and Controls were as described above.

[1] = cited from earlier work
[2] = 40 μl pure compound on filter paper, exposure time 1 hr, S.E. ± 0 unless noted
[3] = 40 μl pure compound on filter paper, exposure time 2 hrs, S.E. ± 0 unless noted

Compound | Average % Mortality ± S.E. Treatment (free-running adult mites; [2]) | Average % Mortality ± S.E. Treatment (free-running adult mites; [3]) | % Mortality Treatment (free-running adult mites; in vivo) | further results
C=C(C)C1CC=C(C)CC1 (single isomer, unassigned; (+)) [d-Limonene, (+)-4-isopropenyl-1-methyl-1-cyclohexene] | 5.0 ± 5.0% | 55.0 ± 9.57% |  | 
CCC(C)=O [2-Butanone] | 87.5 ± 7.22% | 77.3 ± 15.6% |  | 
CCCCC(C)=O [2-Hexanone] |  |  |  | % Mortality Treatment (free-running adult mites; 40 μl pure compound on filter paper, exposure time 1 hr): 100%
CCCCCCC(C)=O [2-Octanone] |  |  | 100% | 
CCCC(C)=O [2-Pentanone] |  |  |  | solubility in water ([1]; in words): almost insoluble in water
CCCCC(=O)CC [3-Heptanone] |  |  | 100% | 
CCCC(=O)CCC [4-Heptanone] |  |  | 100% | 
CC(C)=O [Acetone] | 48 ± 8.65% | 81.2 ± 12.0% |  | solubility in water ([1]; in words): miscible with water
O=Cc1ccccc1 [Benzaldehyde] | 55 ± 12.6% | 100% |  | solubility in water [1]: about 350 parts water
CCCC(=O)OCC [Ethyl Butyrate, Ethyl butyrate] |  |  |  | solubility in water [1]: about 150 parts water; Average % Mortality ± S.E. Treatment (free-running adult mites; in vivo): 81.2 ± 12.0%
CCCCCCC=O [Heptaldehyde] |  |  | 100% | 
